Where a name gives a salt, the structure may show the parent alone.
Biological target: T1, human recombinant Dipeptidyl peptidase IV enzyme (Homo sapiens, UniProt P27487)
T1 construct: purchased R & D Systems
Assay: In-vitro DPP-IV assay (cleavage of Gly-Pro-AMC)
Assay type: biochemical
Conditions: at 300 nM, n = 3, read-out: DPP-IV inhibition, percent inhibition at 300 nM
Method: Protocol for In-Vitro DPP-IV Assay
DPPIV activity was determined by the cleavage rate of 7-amino-4-methyl coumarin (AMC) from synthetic substrate Glycyl-Prolyl-AMC. In brief, the assay was conducted by adding 10 ng of human recombinant Dipeptidyl peptidase IV enzyme (DPPIV, available commercially from R & D Systems) in 50 μl of the assay buffer (25 mM Tris, pH 7.4, 140 mM NaCl, 10 mM KCl, 1% BSA) to 96 well black flat bottom microtiter plates. The reaction was initiated by adding 50 μl of 100 μM substrate Gly-Pro-AMC. The incubation was carried out in the kinetic mode at 30° C. for 30 minutes. Fluorescence was measured using Fluorostar at excitation filter of 380 nm and emission filter of 460 nm). Test compounds and solvent controls were added as 1 μl additions. A standard curve of free amino methyl coumarin (AMC) was generated using 0–100 μM AMC in the assay buffer. The curve generated, which was linear was used for the interpolation of catalytic activity.
Test compounds dissolved in DMSO at 5–6 concentrations were tested in duplicate along with the solvent control and blank samples. Percent inhibition was calculated at each concentration with respect to the solvent control sample (no test compound added). IC50 values were calculated from 3 experiments using the prism software.

T1 sequence (P27487 whole entry): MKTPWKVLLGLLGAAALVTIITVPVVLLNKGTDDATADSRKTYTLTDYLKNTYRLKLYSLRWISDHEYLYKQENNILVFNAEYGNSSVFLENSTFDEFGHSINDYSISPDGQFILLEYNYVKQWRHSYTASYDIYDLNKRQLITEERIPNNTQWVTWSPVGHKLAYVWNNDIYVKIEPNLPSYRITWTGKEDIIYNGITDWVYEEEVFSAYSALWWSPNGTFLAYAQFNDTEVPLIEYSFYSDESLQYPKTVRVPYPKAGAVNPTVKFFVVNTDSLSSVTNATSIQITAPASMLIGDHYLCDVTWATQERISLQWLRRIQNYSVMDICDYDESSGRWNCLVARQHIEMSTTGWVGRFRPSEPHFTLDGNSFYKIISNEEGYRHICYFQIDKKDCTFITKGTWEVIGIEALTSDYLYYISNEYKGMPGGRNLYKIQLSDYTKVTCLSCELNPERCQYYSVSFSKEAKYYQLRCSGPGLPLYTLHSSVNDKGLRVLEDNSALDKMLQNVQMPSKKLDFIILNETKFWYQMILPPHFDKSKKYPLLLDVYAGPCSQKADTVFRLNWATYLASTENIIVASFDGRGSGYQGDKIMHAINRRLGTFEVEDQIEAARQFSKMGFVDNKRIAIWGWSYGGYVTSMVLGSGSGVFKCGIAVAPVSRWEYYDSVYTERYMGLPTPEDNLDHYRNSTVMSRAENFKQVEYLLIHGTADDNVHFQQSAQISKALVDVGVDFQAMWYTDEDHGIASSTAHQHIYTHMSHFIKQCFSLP

Row | SMILES | inhibition at 0.3 µM [%]
1 | N#Cc1ccc(OC[C@H]2CC[C@@H](NCC(=O)N3CCC[C@H]3C#N)C2)c2oc3ccccc3c12 [Example-51, (2S)-1-{2-[(3S,1R)-3-(1-Cyanodibenzo[b,d]furan-4-yloxymethyl)cyclopentylamino]-acetyl}-pyrrolidine-2-carbonitrile] | 25

Same assay, conditions: n = 3, substrate Gly-Pro-AMC, 30° C., 30 minutes, read-out: DPP-IV inhibition IC50

Row | SMILES | IC50 [nM]
2 | N#C[C@@H]1CCCN1C(=O)CN[C@@H]1CC[C@H](CS(=O)(=O)c2ccccc2)C1 [Example-31, (2S)-1-{2-[(3S,1R)-3-Phenylsulfonylmethylcyclopentylamino]acetytl}-pyrrolidine-2-carbonitrile] | 91.8
3 | N#C[C@@H]1CCCN1C(=O)CN[C@H]1CC[C@@H](CSc2ccccc2)C1 [Example-32, (2S)-1-{2-[(1S,3R)-3-Phenylsulfanylmethylcycopentylamino]acetyl}-pyrrolidine-2-carbonitrile] | 37
4 | N#C[C@@H]1CCCN1C(=O)CN[C@H]1CC[C@@H](CS(=O)(=O)c2ccccc2)C1 [Example-33, (2S)-1-{2-[(1S,3R)-3-Phenylsulfonylmethylcyclopentylamino]acetyl}-pyrrolidine-2-carbonitrile] | 57.3
5 | N#C[C@@H]1CCCN1C(=O)CN[C@H]1CC[C@@H](CSc2ccc(F)cc2)C1 [Example-34, (2S)-1-{2-[(1S,3R)-3-(4-Fluorophenylsulfanylmethyl)cyclopentylamino]acetyl}-pyrro-lidine-2-carbonitrile] | 26.1
6 | N#C[C@@H]1CCCN1C(=O)CN[C@H]1C=C[C@@H](CSc2ccccn2)C1 [Example-35, (2S)-1-{2-[(4S,1R)-4-(2-Pyridylsulfanylmethyl)cyclopent-2-enealino]acetyl}-pyrrolidine-2-carbonitrile] | 70.9
7 | N#C[C@@H]1CCCN1C(=O)CN[C@H]1CC[C@@H](CSc2ccccn2)C1 [Example-36, (2S)-1-{2-[(1S,3R)-3-(2-Pyridylsulfanylmethyl)cyclopentylamino]acetyl}-pyrrolidine-2-carbonitrile] | 10.6
8 | N#C[C@@H]1CCCN1C(=O)CN[C@H]1CC[C@@H](CS(=O)(=O)c2ccccn2)C1 [Example-37, (2S)-1-{2-[(1S,3R)-3-(2-Pyridylsulfonylmethyl)cyclopentylamino]acetyl}-pyrrolidine-2-carbonitrile] | 66
9 | N#C[C@@H]1CCCN1C(=O)CN[C@@H]1CC[C@H](CSc2ncccn2)C1 [Example-41, (2S)-1-{2-[(3S,1R)-3-(2-Pyrimidinylsulfanylmethyl)cyclopentylamino]acetyl}-pyrrol-idine-2-carbonitrile] | 15.8
10 | N#C[C@@H]1CCCN1C(=O)CN[C@@H]1CC[C@H](CSc2nc3ccccc3[nH]2)C1 [Example-42, (2S)-1-{2-[(3S,1R)-3-(1H-Benzo[d]imidazol-2-ylsulfanylmethyl)cyclopentylamino]-acetyl}-pyrrolidine-2-carbonitrile] | 26.8
11 | N#C[C@@H]1CCCN1C(=O)CN[C@@H]1CC[C@H](COc2ccc([N+](=O)[O-])cc2)C1 [Example-44, (2S)-1-{2-[(3S,1R)-3-(4-Nitrophenoxymethyl)cyclopentylamino]acetyl}-pyrrolidine-2-carbonitrile] | 25.8
12 | N#C[C@@H]1CCCN1C(=O)CN[C@H]1CC[C@@H](COc2ccc([N+](=O)[O-])cc2)C1 [Example-45, (2S)-1-{2-[(3R,1S)-3-(4-Nitrophenoxymethyl)cyclopentylamino]acetyl}-pyrrolidine-2-carbonitrile] | 49.9
13 | N#Cc1ccc(OC[C@@H]2CC[C@H](NCC(=O)N3CCC[C@H]3C#N)C2)cc1 [Example-46] | 11.6
14 | N#Cc1ccc(OC[C@H]2CC[C@@H](NCC(=O)N3CCC[C@H]3C#N)C2)cc1 [Example-47, (2S)-1-{2-[(3S,1R)-3-(4-Cyanophenoxymethyl)cyclopentylamino]acetyl}-pyrrolidine-2-carbonitrile] | 13.8
15 | N#Cc1ccc(OC[C@H]2CC[C@@H](NCC(=O)N3CCC[C@H]3C#N)C2)cc1 [Example-48, (2S)-1-{2-[(3S,1R)-3-(4-Cyanophenoxymethyl)cyclopentylamino]acetyl}-pyrrolidine-2-carbonitrile hydrochloride] | 13.5
16 | N#Cc1ccc(OC[C@H]2CC[C@@H](NCC(=O)N3CCC[C@H]3C#N)C2)cc1F [Example-49, (2S)-1-{2-[(3S,1R)-3-(4-Cyano-3-fluorophenoxymethyl)cyclopentylamino]acetyl}-pyrrolidine-2-carbonitrile] | 23.5
17 | N#Cc1ccc(OC[C@H]2CC[C@@H](NCC(=O)N3C[C@@H](F)C[C@H]3C#N)C2)cc1F [Example-50, (2S,4S)-1-{2-[(3S,1R)-3-(4-Cyano-3-fluorophenoxymethyl)cyclopentylamino]acetyl}-4-fluoro-pyrrolidine-2-carbonitrile] | 2.56

Source: patent US7230002B2, “Dipeptidyl peptidase IV inhibitors; processes for their preparation and compositions thereof” (Glenmark Pharmaceuticals Ltd., priority 2004, dated 2007)
